We go through 53 compounds from patent publication US8299070B2, “Indole compounds and pharmaceutical use thereof” (Japan Tobacco Inc., priority 2009, dated 2012).

In one test the target is T1, hITK enzyme (FLAG-tagged full-length hITK) (Homo sapiens, UniProt Q08881).
T1 construct: strongly expressing FLAG-tagged full-length hITK in Sf9 cells; FLAG; made in house; host or cells: Sf9 insect cells (ITK); Escherichia coli (GST-SLP76 substrate)
T1 sequence (Q08881 1-620): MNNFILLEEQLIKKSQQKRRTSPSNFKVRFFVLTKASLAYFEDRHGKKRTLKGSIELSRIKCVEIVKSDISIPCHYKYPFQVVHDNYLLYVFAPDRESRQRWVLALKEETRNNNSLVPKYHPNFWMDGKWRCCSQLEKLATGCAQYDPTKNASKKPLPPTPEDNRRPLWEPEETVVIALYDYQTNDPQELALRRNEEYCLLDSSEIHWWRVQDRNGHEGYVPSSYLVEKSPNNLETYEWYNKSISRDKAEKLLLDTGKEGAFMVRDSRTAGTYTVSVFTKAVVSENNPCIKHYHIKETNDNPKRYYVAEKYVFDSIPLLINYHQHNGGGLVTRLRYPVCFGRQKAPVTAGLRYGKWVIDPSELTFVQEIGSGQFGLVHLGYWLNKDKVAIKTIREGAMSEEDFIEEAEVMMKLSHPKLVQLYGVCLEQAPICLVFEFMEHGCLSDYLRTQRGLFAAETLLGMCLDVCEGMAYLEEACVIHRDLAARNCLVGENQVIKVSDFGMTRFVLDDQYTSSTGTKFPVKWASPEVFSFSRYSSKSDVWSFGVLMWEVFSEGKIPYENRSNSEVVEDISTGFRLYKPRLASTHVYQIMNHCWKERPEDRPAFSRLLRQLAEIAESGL
The test is described as follows: ITK inhibitory activity (HTRF kinase assay, biotinylated GST-SLP76 substrate). The class given is biochemical. Conditions: ATP concentration of the substrate solution 6 μmol/L (Examples 380 and 381). In short, it runs like this: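 Sf9-expressed hITK (50 ng/mL enzyme solution) reacted 10 min at RT in MOPS pH 7.0, 10 mmol/L MgCl2, 1 mmol/L DTT with E. coli SLP76 aa95–175 substrate; substrate solution held 100 µmol/L ATP (6 µmol/L for selected compounds). HTRF 665/620 ratio, blank-corrected; IC50 interpolated between two concentrations bracketing 50% inhibition.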
On to `CC(NCCOCC(=O)O)C(=O)N(C)c1ccc2cc(-c3n[nH]c4c3CCC(C)(C)C4)[nH]c2c1` (centres unmarked) [Example 380], for which 2 nM corresponded to half-maximal inhibition (IC50).

In turn, `C[C@H](C(=O)N(C)c1ccc2cc(-c3n[nH]c4c3CCC(C)(C)C4)[nH]c2c1)N1CCOCC1` [Example 381] had an IC50 of 2 nM.

Still in this test, the particulars now being: IC50 calculated from the 2 test compound concentrations sandwiching 50% ITK inhibitory rate.
As to `Cn1cncc1CNC(=O)c1ccc2[nH]c(-c3n[nH]c4c3CCC(C)(C)C4)cc2c1` [Example 329], the 50% inhibitory concentration (IC50) is 13 nM. On the same count and under the same terms, the value for `CCN(CC)C(=O)c1ccc2[nH]c(-c3n[nH]c4c3CCC(C)(C)C4)cc2c1` [Example 330] was 80 nM; that for `CCN(C)C(=O)c1ccc2[nH]c(-c3n[nH]c4c3CCC(C)(C)C4)cc2c1` [Example 331] was 60 nM. Same read-out and setting: then `CC1(C)CCc2c(-c3cc4cc(C(=O)N5CCCC5)ccc4[nH]3)n[nH]c2C1` [Example 332], with 46 nM.

In the case of `CC1(C)CCc2c(-c3cc4cc(C(=O)N5CCCCC5)ccc4[nH]3)n[nH]c2C1` [Example 333], the IC50 is 106 nM. Same read-out and setting: then `CC1(C)CCc2c(-c3cc4cc(C(=O)N5CCc6[nH]cnc6C5)ccc4[nH]3)n[nH]c2C1` [Example 334], with 31 nM. The same measure, in the same setting: the value for `CC1(C)CCc2c(-c3cc4cc(C(=O)N5C[C@@H](O)[C@@H](O)C5)ccc4[nH]3)n[nH]c2C1` [Example 335] was 26 nM; that for `CC1(C)CCc2c(-c3cc4cc(C(=O)N5CCN(C(=O)OC(C)(C)C)CC5)ccc4[nH]3)n[nH]c2C1` [Example 336] was 78 nM; that for `CCN1CCN(C(=O)c2ccc3[nH]c(-c4n[nH]c5c4CCC(C)(C)C5)cc3c2)CC1` [Example 337] was 49 nM. Still for that read-out and setting: the value for `CO[C@H]1CN(C(=O)c2ccc3[nH]c(-c4n[nH]c5c4CCC(C)(C)C5)cc3c2)C[C@H]1OC` [Example 338] was 33 nM; that for `CN(C(=O)c1ccccc1)c1ccc2[nH]c(-c3n[nH]c4c3CCC(C)(C)C4)cc2c1` [Example 339] was 842 nM. `CCC(=O)N(C)c1ccc2[nH]c(-c3n[nH]c4c3CCC(C)(C)C4)cc2c1` [Example 340]: the 50% inhibitory concentration (IC50) was 129 nM. On to `CN(C(=O)C1CCOCC1)c1ccc2[nH]c(-c3n[nH]c4c3CCC(C)(C)C4)cc2c1` [Example 341], for which the IC50 is 333 nM.

On to `CC(C)CC(=O)N(C)c1ccc2[nH]c(-c3n[nH]c4c3CCC(C)(C)C4)cc2c1` [Example 342], for which the IC50 was 245 nM.

For the compound `CN(C(=O)CO)c1ccc2[nH]c(-c3n[nH]c4c3CCC(C)(C)C4)cc2c1` [Example 343], the IC50 was 135 nM. For the compound `CC1(C)CCc2c(-c3cc4cc(NC(=O)c5ccccc5)ccc4[nH]3)n[nH]c2C1` [Example 344], the IC50 was 278 nM. On the same count and under the same terms, the value for `CCC(=O)Nc1ccc2[nH]c(-c3n[nH]c4c3CCC(C)(C)C4)cc2c1` [Example 345] was 88 nM; that for `CO[C@H]1CC[C@@H](C(=O)N(C)c2ccc3cc(-c4n[nH]c5c4CCC(C)(CO)C5)[nH]c3c2)CC1` (some centres unmarked) [Example 346] was 5 nM. As for `COCC1(C)CCc2c(-c3cc4ccc(N(C)C(=O)CN5CCCCC5=O)cc4[nH]3)n[nH]c2C1` (centres unmarked) [Example 347], the IC50 is 4 nM.

`COCC1(C)CCc2c(-c3cc4ccc(N(C)C(=O)[C@H]5CC[C@@H](OC)CC5)cc4[nH]3)n[nH]c2C1` (some centres unmarked) [Example 348]: the IC50 is 8 nM. On to `CN(C(=O)C1CCCC1)c1ccc2cc(-c3n[nH]c4c3CCC(C)(CO)C4)[nH]c2c1` (centres unmarked) [Example 349], for which the IC50 is 2 nM. On to `CN(C(=O)c1ccccc1)c1ccc2cc(-c3n[nH]c4c3CCCC4)[nH]c2c1` [Example 350], for which the IC50 is 62 nM. On to `CCC(=O)N(C)c1ccc2cc(-c3n[nH]c4c3CCCC4)[nH]c2c1` [Example 351], for which the IC50 is 24 nM. Still for that read-out and setting: then `COCC(=O)N(C)c1ccc2cc(-c3n[nH]c4c3CCCC4)[nH]c2c1` [Example 352], with 37 nM; and `COCC(=O)N(C)c1ccc2cc(-c3n[nH]c4c3CC[C@@H](C)C4)[nH]c2c1` [Example 353], with 16 nM; and `CCC(=O)N(C)c1ccc2cc(-c3n[nH]c4c3CC[C@@H](C)C4)[nH]c2c1` [Example 354], with 16 nM.

For `CCC(=O)N(C)c1ccc2cc(-c3n[nH]c4c3CCC(C)C4)[nH]c2c1` (centres unmarked) [Example 355], the IC50 was 9 nM.

For the compound `COCC(=O)N(C)c1ccc2cc(-c3n[nH]c4c3CCC(C)C4)[nH]c2c1` (centres unmarked) [Example 356], the IC50 was 9 nM.

For the compound `CC1CCc2c(-c3cc4ccc(N(C)C(=O)c5ccccc5)cc4[nH]3)n[nH]c2C1` (centres unmarked) [Example 357], the IC50 was 29 nM. The same measure, in the same setting: the value for `C[C@@H]1CCc2c(-c3cc4ccc(N(C)C(=O)c5ccccc5)cc4[nH]3)n[nH]c2C1` [Example 358] was 38 nM. Still for that read-out and setting: then `CC(C)OCC(=O)N(C)c1ccc2cc(-c3n[nH]c4c3CCCC4)[nH]c2c1` [Example 359], with 21 nM; and `CC(=O)N(C)c1ccc2cc(-c3n[nH]c4c3CCCC4)[nH]c2c1` [Example 360], with 67 nM. Still for that read-out and setting: then `CC(C)CC(=O)N(C)c1ccc2cc(-c3n[nH]c4c3CCCC4)[nH]c2c1` [Example 361], with 20 nM; and `CN(C(=O)COc1ccccc1)c1ccc2cc(-c3n[nH]c4c3CCCC4)[nH]c2c1` [Example 362], with 12 nM; and `CN(C(=O)OCc1ccccc1)c1ccc2cc(-c3n[nH]c4c3CC(OCc3ccccc3)C(C)(C)C4)[nH]c2c1` (centres unmarked) [Example 363], with 485 nM. As for `CCC(=O)N(C)c1ccc2cc(-c3n[nH]c4c3CC(OCc3ccccc3)C(C)(C)C4)[nH]c2c1` (centres unmarked) [Example 364], the IC50 is 45 nM. The same measure, in the same setting: then `CCC(=O)N(C)c1ccc2cc(-c3n[nH]c4c3CC(O)CC4)[nH]c2c1` (centres unmarked) [Example 365], with 45 nM. Regarding `COCC(=O)N(C)c1ccc2cc(-c3n[nH]c4c3CC(O)CC4)[nH]c2c1` (centres unmarked) [Example 366], the IC50 was 82 nM.

As to `CN(C(=O)c1ccccc1)c1ccc2cc(-c3n[nH]c4c3CC(O)CC4)[nH]c2c1` (centres unmarked) [Example 367], the IC50 is 75 nM. The same measure, in the same setting: then `CCC(=O)N(C)c1ccc2cc(-c3n[nH]c4c3CC(OC)CC4)[nH]c2c1` (centres unmarked) [Example 368], with 131 nM; and `COCC(=O)N(C)c1ccc2cc(-c3n[nH]c4c3CC(OC)CC4)[nH]c2c1` (centres unmarked) [Example 369], with 207 nM. Same read-out and setting: then `COC1CCc2[nH]nc(-c3cc4ccc(N(C)C(=O)c5ccccc5)cc4[nH]3)c2C1` (centres unmarked) [Example 370], with 204 nM; and `CCC(=O)N(C)c1ccc2cc(-c3n[nH]c4c3CC(OC(C)C)CC4)[nH]c2c1` (centres unmarked) [Example 371], with 112 nM. The same measure, in the same setting: then `CCC(=O)N(C)c1ccc2cc(-c3n[nH]c4c3CC(OC)C(C)(C)C4)[nH]c2c1` (centres unmarked) [Example 372], with 11 nM.

As for `CCC(=O)N(C)c1ccc2cc(-c3n[nH]c4c3CC(O)C(C)(C)C4)[nH]c2c1` (centres unmarked) [Example 373], the IC50 is 8 nM. On the same count and under the same terms, the value for `CC(=O)Nc1ccc2cc(-c3n[nH]c4c3CCC(C)(C)C4)[nH]c2c1` [Example 374] was 130 nM; that for `C[C@@H](C(=O)Nc1ccc2cc(-c3n[nH]c4c3CCC(C)(C)C4)[nH]c2c1)N1CCOCC1` [Example 375] was 110 nM; that for `CC(NCCO)C(=O)N(C)c1ccc2cc(-c3n[nH]c4c3CCC(C)(C)C4)[nH]c2c1` (centres unmarked) [Example 376] was 2 nM. Same read-out and setting: then `CC(N)C(=O)N(C)c1ccc2cc(-c3n[nH]c4c3CCC(C)(C)C4)[nH]c2c1` (centres unmarked) [Example 377], with 6 nM.

Take `CC(C(=O)N(C)c1ccc2cc(-c3n[nH]c4c3CCC(C)(C)C4)[nH]c2c1)N1CCOC(O)C1` (centres unmarked) [Example 378]: the IC50 is 2 nM. Still for that read-out and setting: the value for `CC(C(=O)N(C)c1ccc2cc(-c3n[nH]c4c3CCC(C)(C)C4)[nH]c2c1)N(CCO)CC(=O)O` (centres unmarked) [Example 379] was 4 nM.
